Test results as given in ChEMBL document CHEMBL2177025, “Chemical proteomics-based analysis of off-target binding profiles for rosiglitazone and pioglitazone: clues for assessing potential for cardiotoxicity” (J Med Chem, 2012).
Activity calls are given as the source filed them. The calls are words filed in the database; no cut-off is given here.

Columns and labels:
[1] = molecular target: L-lactate dehydrogenase B chain (Rattus norvegicus) (UniProt P42123); test: Binding affinity to L-lactate dehydrogenase B chain in Sprague-Dawley rat heart homogenate after 15 mins by chromatographic analysis relative to rosiglitazone; type: tissue-based
Sequence of L-lactate dehydrogenase B chain (Rattus norvegicus) (P42123 whole entry): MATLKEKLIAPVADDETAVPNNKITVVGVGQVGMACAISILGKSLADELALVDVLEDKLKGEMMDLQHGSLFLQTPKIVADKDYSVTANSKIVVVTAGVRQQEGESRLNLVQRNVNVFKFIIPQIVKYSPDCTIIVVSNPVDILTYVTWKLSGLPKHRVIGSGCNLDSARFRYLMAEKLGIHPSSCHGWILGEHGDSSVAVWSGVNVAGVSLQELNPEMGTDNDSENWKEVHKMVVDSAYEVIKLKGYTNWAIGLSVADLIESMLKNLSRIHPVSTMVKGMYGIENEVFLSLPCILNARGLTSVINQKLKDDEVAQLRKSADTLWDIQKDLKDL

[2] = molecular target: 2-oxoglutarate dehydrogenase complex component E1 (Mus musculus) (UniProt Q60597); test: Binding affinity to mouse mitochondrial 2-oxoglutarate dehydrogenase E1 component by chromatographic analysis
Sequence of 2-oxoglutarate dehydrogenase complex component E1 (Mus musculus) (Q60597 whole entry, one chain of several): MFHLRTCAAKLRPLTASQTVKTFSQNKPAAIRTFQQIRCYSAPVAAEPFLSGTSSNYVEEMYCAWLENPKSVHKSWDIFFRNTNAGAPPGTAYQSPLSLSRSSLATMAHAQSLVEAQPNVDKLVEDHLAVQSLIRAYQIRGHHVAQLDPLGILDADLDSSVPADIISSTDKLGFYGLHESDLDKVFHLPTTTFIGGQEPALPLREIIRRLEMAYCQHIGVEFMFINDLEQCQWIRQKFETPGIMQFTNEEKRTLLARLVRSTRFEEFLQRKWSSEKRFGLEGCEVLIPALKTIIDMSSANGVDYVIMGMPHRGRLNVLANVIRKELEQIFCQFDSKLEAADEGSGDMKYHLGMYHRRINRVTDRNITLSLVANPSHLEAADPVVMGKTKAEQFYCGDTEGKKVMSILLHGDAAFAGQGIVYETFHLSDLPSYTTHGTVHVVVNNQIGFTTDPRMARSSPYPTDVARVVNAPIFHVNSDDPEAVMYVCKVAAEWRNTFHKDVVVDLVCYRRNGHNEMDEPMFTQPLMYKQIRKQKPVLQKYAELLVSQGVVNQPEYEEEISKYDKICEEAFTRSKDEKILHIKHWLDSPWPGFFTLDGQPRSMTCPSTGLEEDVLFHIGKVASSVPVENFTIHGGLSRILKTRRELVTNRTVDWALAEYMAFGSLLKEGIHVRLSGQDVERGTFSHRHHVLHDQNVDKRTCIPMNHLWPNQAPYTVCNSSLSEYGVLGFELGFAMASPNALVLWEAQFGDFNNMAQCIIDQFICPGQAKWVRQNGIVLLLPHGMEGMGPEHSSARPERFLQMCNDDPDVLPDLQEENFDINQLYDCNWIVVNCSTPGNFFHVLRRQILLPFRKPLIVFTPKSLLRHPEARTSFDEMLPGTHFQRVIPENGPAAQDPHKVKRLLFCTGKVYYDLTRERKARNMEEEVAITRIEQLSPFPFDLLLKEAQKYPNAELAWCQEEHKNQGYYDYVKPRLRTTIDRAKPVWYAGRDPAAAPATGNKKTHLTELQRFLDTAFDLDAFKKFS

[3] = molecular target: Dihydrolipoyllysine-residue succinyltransferase component of 2-oxoglutarate dehydrogenase complex, mitochondrial (Mus musculus) (UniProt Q9D2G2); test: Binding affinity to mouse mitochondrial dihydrolipoyllysine-residue succinyltransferase component of 2-oxoglutarate dehydrogenase complex by chromatographic analysis
Sequence of Dihydrolipoyllysine-residue succinyltransferase component of 2-oxoglutarate dehydrogenase complex, mitochondrial (Mus musculus) (Q9D2G2 whole entry, one chain of several): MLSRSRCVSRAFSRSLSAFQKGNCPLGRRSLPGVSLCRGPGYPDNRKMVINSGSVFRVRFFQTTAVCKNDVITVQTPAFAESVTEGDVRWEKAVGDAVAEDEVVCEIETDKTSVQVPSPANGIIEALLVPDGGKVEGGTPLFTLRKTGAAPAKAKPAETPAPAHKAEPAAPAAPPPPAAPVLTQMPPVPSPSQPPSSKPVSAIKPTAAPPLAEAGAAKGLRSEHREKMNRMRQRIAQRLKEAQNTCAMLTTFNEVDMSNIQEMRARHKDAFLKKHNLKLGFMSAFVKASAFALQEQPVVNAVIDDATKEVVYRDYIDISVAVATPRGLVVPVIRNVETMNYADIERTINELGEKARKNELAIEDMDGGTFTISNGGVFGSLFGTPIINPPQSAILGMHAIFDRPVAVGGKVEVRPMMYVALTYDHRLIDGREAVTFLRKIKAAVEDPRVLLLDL

[4] = molecular target: Malate dehydrogenase, cytoplasmic (Mus musculus) (UniProt P14152); test: Binding affinity to mouse cytoplasmic malate dehydrogenase by chromatographic analysis
Sequence of Malate dehydrogenase, cytoplasmic (Mus musculus) (P14152 whole entry): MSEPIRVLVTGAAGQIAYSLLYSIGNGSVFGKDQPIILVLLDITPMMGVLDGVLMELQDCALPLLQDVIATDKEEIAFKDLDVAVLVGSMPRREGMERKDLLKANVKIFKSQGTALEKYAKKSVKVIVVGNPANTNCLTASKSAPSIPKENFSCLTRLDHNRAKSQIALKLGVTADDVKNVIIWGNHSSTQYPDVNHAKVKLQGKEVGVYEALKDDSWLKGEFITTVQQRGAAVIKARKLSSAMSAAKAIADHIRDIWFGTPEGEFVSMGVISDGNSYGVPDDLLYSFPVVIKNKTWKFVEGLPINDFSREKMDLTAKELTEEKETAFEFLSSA

[5] = molecular target: Hydroxyacyl-coenzyme A dehydrogenase, mitochondrial (Rattus norvegicus) (UniProt Q9WVK7); test: Binding affinity to mitochondrial short-chain L-3-hydroxyacyl-coenzyme A dehydrogenase in Sprague-Dawley rat heart homogenate after 15 mins by chromatographic analysis; type: tissue-based
[6] = molecular target: Short-chain specific acyl-CoA dehydrogenase, mitochondrial (Rattus norvegicus) (UniProt P15651); test: Binding affinity to mitochondrial short-chain specific acyl-CoA dehydrogenase in Sprague-Dawley rat heart homogenate after 15 mins by chromatographic analysis; type: tissue-based
[7] = molecular target: T1, Dihydrolipoyl dehydrogenase, mitochondrial (Mus musculus) (UniProt O08749); test: Binding affinity to mouse mitochondrial dihydrolipoyl dehydrogenase by chromatographic analysis relative to rosiglitazone
T1 sequence (whole entry): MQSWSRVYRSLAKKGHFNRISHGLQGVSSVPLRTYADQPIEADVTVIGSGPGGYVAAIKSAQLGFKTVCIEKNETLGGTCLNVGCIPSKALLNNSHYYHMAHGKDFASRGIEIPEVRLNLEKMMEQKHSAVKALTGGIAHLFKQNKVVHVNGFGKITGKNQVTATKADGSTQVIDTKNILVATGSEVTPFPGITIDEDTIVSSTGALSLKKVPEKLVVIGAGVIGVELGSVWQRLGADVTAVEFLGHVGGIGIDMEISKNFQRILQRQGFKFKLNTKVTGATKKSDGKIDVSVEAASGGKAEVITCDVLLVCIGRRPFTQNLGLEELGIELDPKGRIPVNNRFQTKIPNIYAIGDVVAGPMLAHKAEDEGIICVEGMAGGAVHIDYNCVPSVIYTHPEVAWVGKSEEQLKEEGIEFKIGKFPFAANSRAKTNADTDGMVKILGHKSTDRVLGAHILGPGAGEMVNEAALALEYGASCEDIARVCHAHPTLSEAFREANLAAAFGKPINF

[8] = molecular target: Glyceraldehyde-3-phosphate dehydrogenase (Rattus norvegicus) (UniProt P04797); test: Binding affinity to glyceraldehyde 3-phosphate dehydrogenase in Sprague-Dawley rat heart homogenate after 15 mins by chromatographic analysis; type: tissue-based
[9] = molecular target: Glutamate dehydrogenase 1, mitochondrial (Rattus norvegicus) (UniProt P10860); test: Binding affinity to mitochondrial glutamate dehydrogenase 1 in Sprague-Dawley rat heart homogenate after 15 mins by chromatographic analysis; type: tissue-based
Sequence of Glutamate dehydrogenase 1, mitochondrial (Rattus norvegicus) (P10860 whole entry): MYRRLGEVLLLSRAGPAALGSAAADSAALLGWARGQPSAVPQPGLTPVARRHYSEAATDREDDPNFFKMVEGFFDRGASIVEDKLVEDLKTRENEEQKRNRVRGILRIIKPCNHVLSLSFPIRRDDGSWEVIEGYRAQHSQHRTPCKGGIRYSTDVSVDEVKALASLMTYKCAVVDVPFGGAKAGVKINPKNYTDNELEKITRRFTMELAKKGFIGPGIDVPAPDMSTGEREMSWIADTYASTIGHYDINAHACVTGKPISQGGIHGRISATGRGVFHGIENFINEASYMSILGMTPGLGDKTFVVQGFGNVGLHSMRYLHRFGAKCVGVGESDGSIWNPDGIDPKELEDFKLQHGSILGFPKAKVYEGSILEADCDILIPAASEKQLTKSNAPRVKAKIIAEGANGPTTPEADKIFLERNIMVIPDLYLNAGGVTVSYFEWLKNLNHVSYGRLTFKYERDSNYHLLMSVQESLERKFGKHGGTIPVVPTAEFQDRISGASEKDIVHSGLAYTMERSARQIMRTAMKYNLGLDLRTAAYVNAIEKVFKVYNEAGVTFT

[10] = molecular target: Isocitrate dehydrogenase [NADP], mitochondrial (Mus musculus) (UniProt P54071); test: Binding affinity to mouse mitochondrial isocitrate dehydrogenase by chromatographic analysis
Sequence of Isocitrate dehydrogenase [NADP], mitochondrial (Mus musculus) (P54071 whole entry): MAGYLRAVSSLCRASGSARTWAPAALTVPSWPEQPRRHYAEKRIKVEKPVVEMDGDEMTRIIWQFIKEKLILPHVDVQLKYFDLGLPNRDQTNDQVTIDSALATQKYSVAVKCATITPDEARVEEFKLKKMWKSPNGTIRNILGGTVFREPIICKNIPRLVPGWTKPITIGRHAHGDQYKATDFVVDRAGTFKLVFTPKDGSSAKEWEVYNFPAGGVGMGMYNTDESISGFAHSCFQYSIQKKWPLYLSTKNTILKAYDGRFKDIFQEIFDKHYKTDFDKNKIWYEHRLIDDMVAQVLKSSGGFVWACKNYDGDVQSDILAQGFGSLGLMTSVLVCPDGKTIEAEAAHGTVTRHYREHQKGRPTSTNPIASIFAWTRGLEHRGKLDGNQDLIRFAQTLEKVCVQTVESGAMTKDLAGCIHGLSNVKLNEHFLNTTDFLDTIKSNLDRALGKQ

[11] = molecular target: Malate dehydrogenase, mitochondrial (Rattus norvegicus) (UniProt P04636); test: Binding affinity to mitochondrial malate dehydrogenase in Sprague-Dawley rat heart homogenate after 15 mins by chromatographic analysis; type: tissue-based
Sequence of Malate dehydrogenase, mitochondrial (Rattus norvegicus) (P04636 whole entry): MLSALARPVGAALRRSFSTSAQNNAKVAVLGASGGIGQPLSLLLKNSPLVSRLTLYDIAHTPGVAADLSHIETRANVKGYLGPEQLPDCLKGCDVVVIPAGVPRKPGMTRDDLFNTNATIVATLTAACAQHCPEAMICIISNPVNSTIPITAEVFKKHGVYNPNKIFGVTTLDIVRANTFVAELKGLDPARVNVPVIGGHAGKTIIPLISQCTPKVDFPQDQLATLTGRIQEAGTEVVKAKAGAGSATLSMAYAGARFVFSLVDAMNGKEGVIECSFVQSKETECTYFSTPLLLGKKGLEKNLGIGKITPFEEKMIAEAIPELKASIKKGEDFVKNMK

[12] = molecular target: T2, Long-chain specific acyl-CoA dehydrogenase, mitochondrial (Rattus norvegicus) (UniProt P15650); test: Binding affinity to mitochondrial long-chain specific acyl-CoA dehydrogenase in Sprague-Dawley rat heart homogenate after 15 mins by chromatographic analysis relative to rosiglitazone; type: tissue-based
T2 sequence (whole entry): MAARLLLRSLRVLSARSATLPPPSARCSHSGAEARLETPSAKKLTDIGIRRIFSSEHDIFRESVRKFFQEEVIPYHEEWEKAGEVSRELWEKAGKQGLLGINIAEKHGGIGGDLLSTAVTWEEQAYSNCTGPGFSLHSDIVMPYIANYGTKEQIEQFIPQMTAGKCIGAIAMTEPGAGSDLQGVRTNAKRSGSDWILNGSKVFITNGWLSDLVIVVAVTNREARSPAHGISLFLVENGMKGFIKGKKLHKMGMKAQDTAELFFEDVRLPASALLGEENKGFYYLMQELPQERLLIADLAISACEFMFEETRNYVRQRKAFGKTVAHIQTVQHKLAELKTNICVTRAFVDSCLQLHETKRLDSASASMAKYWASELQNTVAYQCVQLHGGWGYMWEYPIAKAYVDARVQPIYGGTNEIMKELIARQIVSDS

[13] = molecular target: Medium-chain specific acyl-CoA dehydrogenase, mitochondrial (Rattus norvegicus) (UniProt P08503); test: Binding affinity to mitochondrial medium-chain specific acyl-CoA dehydrogenase in Sprague-Dawley rat heart homogenate after 15 mins by chromatographic analysis; type: tissue-based
Sequence of Medium-chain specific acyl-CoA dehydrogenase, mitochondrial (Rattus norvegicus) (P08503 whole entry): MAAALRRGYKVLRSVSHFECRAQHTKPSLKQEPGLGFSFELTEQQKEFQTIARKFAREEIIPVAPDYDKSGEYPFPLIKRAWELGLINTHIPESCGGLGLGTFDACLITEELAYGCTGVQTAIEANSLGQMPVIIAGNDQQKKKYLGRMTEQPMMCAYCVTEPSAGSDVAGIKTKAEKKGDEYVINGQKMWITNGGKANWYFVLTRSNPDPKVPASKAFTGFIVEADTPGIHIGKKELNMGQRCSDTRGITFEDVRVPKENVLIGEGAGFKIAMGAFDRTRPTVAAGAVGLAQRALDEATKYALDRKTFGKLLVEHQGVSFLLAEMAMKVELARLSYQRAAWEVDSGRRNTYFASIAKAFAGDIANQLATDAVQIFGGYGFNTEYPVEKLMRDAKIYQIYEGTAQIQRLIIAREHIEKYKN

[14] = molecular target: Pyruvate dehydrogenase E1 component subunit alpha, somatic form, mitochondrial (Rattus norvegicus) (UniProt P26284); test: Binding affinity to mitochondrial pyruvate dehydrogenase E1 component subunit alpha in Sprague-Dawley rat heart homogenate after 15 mins by chromatographic analysis; type: tissue-based
Sequence of Pyruvate dehydrogenase E1 component subunit alpha, somatic form, mitochondrial (Rattus norvegicus) (P26284 whole entry): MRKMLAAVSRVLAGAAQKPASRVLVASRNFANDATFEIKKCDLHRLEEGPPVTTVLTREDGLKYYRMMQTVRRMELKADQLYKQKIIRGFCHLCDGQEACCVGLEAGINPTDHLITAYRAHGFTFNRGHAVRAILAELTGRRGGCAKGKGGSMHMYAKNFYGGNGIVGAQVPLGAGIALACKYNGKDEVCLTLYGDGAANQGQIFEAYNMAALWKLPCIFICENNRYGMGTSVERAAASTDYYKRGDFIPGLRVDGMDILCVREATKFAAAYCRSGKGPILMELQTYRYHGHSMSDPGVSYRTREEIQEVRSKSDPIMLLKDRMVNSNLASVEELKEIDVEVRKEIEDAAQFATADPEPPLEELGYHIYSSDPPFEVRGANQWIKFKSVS

[15] = molecular target: L-lactate dehydrogenase A chain (Rattus norvegicus) (UniProt P04642); test: Binding affinity to L-lactate dehydrogenase A chain in Sprague-Dawley rat heart homogenate after 15 mins by chromatographic analysis; type: tissue-based
[16] = molecular target: Very long-chain specific acyl-CoA dehydrogenase, mitochondrial (Rattus norvegicus) (UniProt P45953); test: Binding affinity to mitochondrial very long-chain specific acyl-CoA dehydrogenase in Sprague-Dawley rat heart homogenate after 15 mins by chromatographic analysis; type: tissue-based
Sequence of Very long-chain specific acyl-CoA dehydrogenase, mitochondrial (Rattus norvegicus) (P45953 whole entry): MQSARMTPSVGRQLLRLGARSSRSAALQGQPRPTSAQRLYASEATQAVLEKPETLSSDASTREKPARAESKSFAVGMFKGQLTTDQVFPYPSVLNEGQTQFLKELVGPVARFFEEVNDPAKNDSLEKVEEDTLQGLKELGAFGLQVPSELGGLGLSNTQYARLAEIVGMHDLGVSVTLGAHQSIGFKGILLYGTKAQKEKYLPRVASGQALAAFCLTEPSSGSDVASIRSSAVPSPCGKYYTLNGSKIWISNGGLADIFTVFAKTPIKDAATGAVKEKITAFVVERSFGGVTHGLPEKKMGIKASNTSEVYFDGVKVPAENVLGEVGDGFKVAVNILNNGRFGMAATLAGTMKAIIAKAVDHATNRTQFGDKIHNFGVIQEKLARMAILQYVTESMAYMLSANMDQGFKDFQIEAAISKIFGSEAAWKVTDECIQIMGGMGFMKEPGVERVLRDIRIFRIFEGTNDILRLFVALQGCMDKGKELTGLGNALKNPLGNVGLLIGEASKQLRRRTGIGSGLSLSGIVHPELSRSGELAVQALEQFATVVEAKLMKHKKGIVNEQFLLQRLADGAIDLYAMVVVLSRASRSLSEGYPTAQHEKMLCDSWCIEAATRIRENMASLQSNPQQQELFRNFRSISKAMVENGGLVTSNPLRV

Activity [1]: Active
Activity [2]: Active
Activity [3]: Active
Activity [4]: Active
Activity [5]: Active
Activity [6]: Active
Activity [7]: Active
Activity [8]: Active
Activity [9]: Active
Activity [10]: Active
Activity [11]: Active
Activity [12]: Active
Activity [13]: Active
Activity [14]: Active
Activity [15]: Active
Activity [16]: Active
SMILES: O=C1NC(=O)C(Cc2ccc(O)cc2)S1 (stereo unspecified)
